Measured values as given in patent US20250296953A1, “3,4-THIAZOLO-STEROIDS AND METHODS OF MAKING AND USING THE SAME” (Arkansas State University - Jonesboro, priority 2018, published 2025).
Read-outs that look alike come from different tables or passages of the source.

How the values were obtained:
SK-MEL-28 = test: Melanoma cytotoxicity assay (resazurin); type: cell-based; conditions: SK-MEL-28 melanoma cells, 24 hours with compound, resazurin; concentration not given
In short: (§1)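 Cells are plated at roughly 4000 per well and allowed 24 h before compound addition in triplicate. After a further 24 h, resazurin is added for 6 h and fluorescence measured; percent viability is normalized to DMSO-treated wells.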

SK-MEL-25 = test: Melanoma cytotoxicity assay (resazurin); type: cell-based; conditions: SK-MEL-25 melanoma cells, 24 hours with compound, resazurin; concentration not given
In short: as §1

gliosarcoma (SF-539) = test: NCI 60 five dose screen
SF-295 = test: NCI 60 one dose screen; type: cell-based, human; conditions: one dose; CNS Cancer; SF-295
[1] = system: 60 different human tumor cell lines; test: cells

C[C@]12CCc3sc(Nc4cccc(O)c4)nc3C1=CC[C@@H]1[C@@H]2CC[C@]2(C)C(=O)CC[C@@H]12 [IIa.17, (1S,2R,13R,14S,18S)-7-(3-hydroxyanilino)-2,18-dimethyl-6-thia-8-azapentacyclo[11.7.0.02,10.05,9.014,18]icosa-5(9),7,10-trien-17-one]
SK-MEL-28 (% inhibition) (SK-MEL-28): 87%
SK-MEL-25 (% inhibition) (SK-MEL-25): 79%
GI50 (gliosarcoma (SF-539); Homo sapiens, SF-539): 3.04 µM
CC50 (gliosarcoma (SF-539); Homo sapiens, SF-539, read-out: LC50): 79.9 µM
TGI (gliosarcoma (SF-539); SF-539 (CNS Cancer), five dose): 1.33E−5
Growth Percent (SF-295): −47.70%
GI50 ([1]; 60 cell): 5.52 µM
CC50 ([1]; 60 cell, read-out: LC50): > 100 µM
GI50 ([1]; 786-0): 3.02 µM
CC50 ([1]; 786-0, read-out: LC50): > 100 µM
GI50 ([1]; A498): 28.8 µM
CC50 ([1]; A498, read-out: LC50): > 100 µM
GI50 ([1]; A549): 26.4 µM
CC50 ([1]; A549, read-out: LC50): > 100 µM
GI50 ([1]; ACHN): 7.81 µM
CC50 ([1]; ACHN, read-out: LC50): > 100 µM
GI50 ([1]; BT-549): 4.58 µM
CC50 ([1]; BT-549, read-out: LC50): > 100 µM
GI50 ([1]; CAKI-1): 13 µM
CC50 ([1]; CAKI-1, read-out: LC50): 70 µM
GI50 ([1]; CCRF-CEM): 2.84 µM
CC50 ([1]; CCRF-CEM, read-out: LC50): > 100 µM
GI50 ([1]; COLO 205): 12.3 µM
CC50 ([1]; COLO 205, read-out: LC50): > 100 µM
GI50 ([1]; DU-145): 4.34 µM
CC50 ([1]; DU-145, read-out: LC50): > 100 µM
GI50 ([1]; EKVX): 28.8 µM
CC50 ([1]; EKVX, read-out: LC50): > 100 µM
GI50 ([1]; HCC 2998): 18.2 µM
CC50 ([1]; HCC 2998, read-out: LC50): > 100 µM
GI50 ([1]; HCT-15): 2.53 µM
CC50 ([1]; HCT-15, read-out: LC50): > 100 µM
GI50 ([1]; HCT-116): 1.91 µM
CC50 ([1]; HCT-116, read-out: LC50): 9.09 µM
GI50 ([1]; HOP-62): 22.4 µM
CC50 ([1]; HOP-62, read-out: LC50): > 100 µM
GI50 ([1]; HOP-92): 18.7 µM
GI50 ([1]; HT-29): 3.9 µM
CC50 ([1]; HT-29, read-out: LC50): 75.2 µM
GI50 ([1]; Hs-578T): 12 µM
CC50 ([1]; Hs-578T, read-out: LC50): > 100 µM
GI50 ([1]; IGROV-1): 8.21 µM
CC50 ([1]; IGROV-1, read-out: LC50): > 100 µM
GI50 ([1]; K562): 2.79 µM
CC50 ([1]; K562, read-out: LC50): > 100 µM
GI50 ([1]; KM12): 8.27 µM
CC50 ([1]; KM12, read-out: LC50): 94.7 µM
GI50 ([1]; LOX IMVI): 3.22 µM
CC50 ([1]; LOX IMVI, read-out: LC50): 48.1 µM
GI50 ([1]; M14): 7.88 µM
CC50 ([1]; M14, read-out: LC50): > 100 µM
GI50 ([1]; MCF7): 3.85 µM
CC50 ([1]; MCF7, read-out: LC50): > 100 µM
GI50 ([1]; MDA-MB-231): 13.4 µM
CC50 ([1]; MDA-MB-231, read-out: LC50): > 100 µM
GI50 ([1]; MDA-MB-435): 3.49 µM
CC50 ([1]; MDA-MB-435, read-out: LC50): > 100 µM
GI50 ([1]; MDA-MB-468): 3.59 µM
CC50 ([1]; MDA-MB-468, read-out: LC50): 54.7 µM
GI50 ([1]; MOLT-4): 2.84 µM
CC50 ([1]; MOLT-4, read-out: LC50): ≥ 100 µM
GI50 ([1]; Malme-3M): 21.2 µM
CC50 ([1]; Malme-3M, read-out: LC50): > 100 µM
GI50 ([1]; NCI-H23): 18.1 µM
CC50 ([1]; NCI-H23, read-out: LC50): > 100 µM
GI50 ([1]; NCI-H226): 7.36 µM
CC50 ([1]; NCI-H226, read-out: LC50): > 100 µM
GI50 ([1]; NCI-H322M): 50.5 µM
CC50 ([1]; NCI-H322M, read-out: LC50): > 100 µM
GI50 ([1]; NCI-H460): 4.65 µM
CC50 ([1]; NCI-H460, read-out: LC50): > 100 µM
GI50 ([1]; NCI-H522): 6.6 µM
CC50 ([1]; NCI-H522, read-out: LC50): 69.3 µM
GI50 ([1]; NCI/ADR-RES): 6.34 µM
CC50 ([1]; NCI/ADR-RES, read-out: LC50): > 100 µM
GI50 ([1]; OVCAR-3): 4.41 µM
CC50 ([1]; OVCAR-3, read-out: LC50): > 100 µM
GI50 ([1]; OVCAR-4): 18.9 µM
CC50 ([1]; OVCAR-4, read-out: LC50): > 100 µM
GI50 ([1]; OVCAR-5): 24.5 µM
CC50 ([1]; OVCAR-5, read-out: LC50): > 100 µM
GI50 ([1]; OVCAR-8): 7.61 µM
CC50 ([1]; OVCAR-8, read-out: LC50): > 100 µM
GI50 ([1]; RXF 393): 3.18 µM
CC50 ([1]; RXF 393, read-out: LC50): 48.9 µM
GI50 ([1]; SF-268): 5.95 µM
CC50 ([1]; SF-268, read-out: LC50): > 100 µM
GI50 ([1]; SK-MEL-2): 17.1 µM
CC50 ([1]; SK-MEL-2, read-out: LC50): > 100 µM
GI50 ([1]; SK-MEL-5): 10.2 µM
CC50 ([1]; SK-MEL-5, read-out: LC50): 62.5 µM
GI50 ([1]; SK-MEL-28): 20.5 µM
CC50 ([1]; SK-MEL-28, read-out: LC50): > 100 µM
GI50 ([1]; SK-OV-3): 34 µM
CC50 ([1]; SK-OV-3, read-out: LC50): > 100 µM
GI50 ([1]; SN12C): 3.81 µM
CC50 ([1]; SN12C, read-out: LC50): > 100 µM
GI50 ([1]; SNB-19): 12.9 µM
CC50 ([1]; SNB-19, read-out: LC50): > 100 µM
GI50 ([1]; SNB-75): 5.4 µM
CC50 ([1]; SNB-75, read-out: LC50): > 100 µM
GI50 ([1]; SW-620): 3.38 µM
CC50 ([1]; SW-620, read-out: LC50): > 100 µM
GI50 ([1]; T47D): 3.5 µM
CC50 ([1]; T47D, read-out: LC50): > 100 µM
GI50 ([1]; TK-10): 7.47 µM
CC50 ([1]; TK-10, read-out: LC50): > 100 µM
GI50 ([1]; U-251): 4.41 µM
CC50 ([1]; U-251, read-out: LC50): 58.6 µM
GI50 ([1]; UACC-62): 9.54 µM
CC50 ([1]; UACC-62, read-out: LC50): 89.7 µM
GI50 ([1]; UACC-257): 23.8 µM
CC50 ([1]; UACC-257, read-out: LC50): > 100 µM
GI50 ([1]; UO-31): 5.26 µM
CC50 ([1]; UO-31, read-out: LC50): 49.9 µM

C[C@]12CCc3nc(N)sc3C1=CC[C@@H]1[C@@H]2CC[C@]2(C)C(=NNC(N)=O)CC[C@@H]12 [IVb.1]
GI50 (gliosarcoma (SF-539); SF-539 (CNS Cancer), five dose): 2.05 µM
TGI (gliosarcoma (SF-539); SF-539 (CNS Cancer), five dose): 5.23E−6
CC50 (gliosarcoma (SF-539); read-out: LC50, SF-539 (CNS Cancer), five dose): 19.8 µM
Growth Percent (SF-295): 45.72%
